Experimental data published in patent US20220227737A1, “NOVEL OXALYL PIPERAZINES ACTIVE AGAINST THE HEPATITIS B VIRUS (HBV)” (AiCuris GmbH & Co. KG, priority 2019, published 2022).

Key:
[1] = system: HBV; experiment: HBV replication assay: HBV DNA from the supernatants of HepAD38 cells; format: cell-based; conditions: Hepatitis B virus, 144 h, HBV DNA in supernatant at day 6, read-out: Cell Activity
Description: Determination of HBV DNA from the Supernatants of HepAD38 Cells
The anti-HBV activity was analysed in the stable transfected cell line HepAD38, which has been described to secrete high levels of HBV virion particles (Ladner et al., 1997). In brief, HepAD38 cells were cultured at 37° C. at 5% CO2 and 95% humidity in 200 μl maintenance medium, which was Dulbecco's modified Eagle's medium/Nutrient Mixture F-12 (Gibco, Karlsruhe), 10% fetal bovine serum (PAN Biotech Aidenbach) supplemented with 50 μg/ml penicillin/streptomycin (Gibco, Karlsruhe), 2 mM L-glutamine (PAN Biotech, Aidenbach), 400 μg/ml G418 (AppliChem, Darmstadt) and 0.3 μg/ml tetracycline. Cells were subcultured once a week in a 1:5 ratio, but were usually not passaged more than ten times. For the assay 60,000 cells were seeded in maintenance medium without any tetracycline into each well of a 96-well plate and treated with serial half-log dilutions of test compound. To minimize edge effects the outer 36 wells of the plate were not used but were filled with assay medium. On each assay plate six wells for the virus control (untreated HepAD38 cells) and six wells for the cell control (HepAD38 cells treated with 0.3 μg/ml tetracycline) were allocated, respectively. In addition, one plate set with reference inhibitors like BAY 41-4109, entecavir, and lamivudine instead of screening compounds were prepared in each experiment. In general, experiments were performed thrice in triplicates. At day 6 HBV DNA from 100 μl filtrated cell culture supernatant (AcroPrep Advance 96 Filter Plate, […] Supor membran, PALL GmbH, Dreieich) was automatically purified on the MagNa Pure LC instrument using the MagNA Pure 96 DNA and Viral NA Small Volume Kit (Roche Diagnostics, Mannheim) according to the instructions of the manufacturer. EC50 values were calculated from relative copy numbers of HBV DNA In brief, 5 μl of the 100 μl eluate containing HBV DNA were subjected to PCR LC480 Probes Master Kit (Roche) together with 1 μM antisense primer […], 0.5 μM sense primer […], 0.3 μM hybprobes […]-FL and LC640-[…]-PH (TIBMolBiol, Berlin) to a final volume of […]. The PCR was performed on the Light Cycler 480 real time system (Roche Diagnostics, Mannheim) using the following protocol: Pre-incubation for 1 min at 95° C., amplification: 40 cycles×(10 sec at 95° C., 50 sec at 60° C., 1 sec at 70° C.), cooling for 10 sec at 40° C. Viral load was quantitated against known standards using HBV plasmid DNA of pCH-9/3091 (Nassal et al., 1990, Cell 63: 1357-1363) and the LightCycler 480 SW 1.5 software (Roche Diagnostics, Mannheim) and EC50 values were calculated using non-linear regression with GraphPad Prism 6 (GraphPad Software Inc., La Jolla, USA).

[2] = target: T1, C-terminal truncated core protein (HBV core dimer, BODIPY-FL labelled) (UniProt P03146); experiment: Biochemical capsid assembly assay (fluorescence quenching)
T1 construct: fused on or other part: One added cysteine at position 150, labelled with BODIPY-FL maleimide; The C-terminal arginine-rich domain is absent
Description: Biochemical Capsid Assembly Assay
The screening for assembly effector activity was done based on a fluorescence quenching assay published by Zlotnick et al. (2007). The C-terminal truncated core protein containing 149 amino acids of the N-terminal assembly domain fused to a unique cysteine residue at position 150 and was expressed in E. coli using the pET expression system (Merck Chemicals, Darmstadt). Purification of core dimer protein was performed using a sequence of size exclusion chromatography steps. In brief, the cell pellet from 1 L BL21 (DE3) Rosetta2 culture expressing the coding sequence of core protein cloned NdeI/XhoI into expression plasmid pET21b was treated for 1 h on ice with a native lysis buffer (Qproteome Bacterial Protein Prep Kit; Qiagen, Hilden). After a centrifugation step the supernatant was precipitated during 2 h stirring on ice with 0.23 g/ml of solid ammonium sulfate. Following further centrifugation the resulting pellet was resolved in buffer A (100 mM Tris, pH 7.5; 100 mM NaCl; 2 mM DTT) and was subsequently loaded onto a buffer A equilibrated CaptoCore 700 column (GE HealthCare, Frankfurt). The column flow through containing the assembled HBV capsid was dialyzed against buffer N (50 mM NaHCO3 pH 9.6; 5 mM DTT) before urea was added to a final concentration of 3M to dissociate the capsid into core dimers for 1.5 h on ice. The protein solution was then loaded onto a 1 L Sephacryl 5300 column. After elution with buffer N core dimer containing fractions were identified by SDS-PAGE and subsequently pooled and dialyzed against 50 mM HEPES pH 7.5; 5 mM DTT. To improve the assembly capacity of the purified core dimers a second round of assembly and disassembly starting with the addition of 5 M NaCl and including the size exclusion chromatography steps described above was performed. From the last chromatography step core dimer containing fractions were pooled and stored in aliquots at concentrations between 1.5 to 2.0 mg/ml at −80° C.
Immediately before labelling the core protein was reduced by adding freshly prepared DTT in a final concentration of 20 mM. After 40 min incubation on ice storage buffer and DTT was removed using a Sephadex G-25 column (GE HealthCare, Frankfurt) and 50 mM HEPES, pH 7.5. For labelling 1.6 mg/ml core protein was incubated at 4° C. and darkness overnight with BODIPY-FL maleimide (Invitrogen, Karlsruhe) in a final concentration of 1 mM. After labelling the free dye was removed by an additional desalting step using a Sephadex G-25 column. Labelled core dimers were stored in aliquots at 4° C. In the dimeric state the fluorescence signal of the labelled core protein is high and is quenched during the assembly of the core dimers to high molecular capsid structures. The screening assay was performed in black 384 well microtiter plates in a total assay volume of 10 μl using 50 mM HEPES pH 7.5 and 1.0 to 2.0 μM labelled core protein. Each screening compound was added in 8 different concentrations using a 0.5 log-unit serial dilution starting at a final concentration of 100 μM, 31.6 μM or 10 μM, In any case the DMSO concentration over the entire microtiter plate was 0.5%. The assembly reaction was started by the injection of NaCl to a final concentration of […] which induces the assembly process to approximately 25% of the maximal quenched signal. […] after starting the reaction the fluorescence signal was measured using a Clariostar plate reader (BMG Labtech, Ortenberg) with an excitation of 477 nm and an emission of 525 nm. As 100% and 0% assembly control HEPES buffer containing 2.5 M and 0 M NaCl was used. Experiments were performed thrice in triplicates. EC50 values were calculated by non-linear regression analysis using the Graph Pad Prism 6 software (GraphPad Software, La Jolla, USA).

[3] = Cell viability assay (AlamarBlue); conditions: human, HepAD38 cells

T1 sequence (P03146 whole entry, the tested form may be a part): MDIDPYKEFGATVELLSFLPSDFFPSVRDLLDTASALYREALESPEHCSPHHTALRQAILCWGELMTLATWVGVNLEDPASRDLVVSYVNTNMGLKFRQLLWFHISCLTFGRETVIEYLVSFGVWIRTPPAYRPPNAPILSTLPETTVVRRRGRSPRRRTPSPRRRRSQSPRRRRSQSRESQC

SMILES	EC50 [1] [µM]	IC50 [2] [µM]	CC50 at 6 days [3] [µM]
O=C(Nc1cccc(Br)c1)C(=O)N1CCN(C(=O)c2cc3ccccc3[nH]2)CC1 [Example 1, N-(3-bromophenyl)-2-[4-(1H-indole-2-carbonyl)piperazin-1-yl]-2-oxoacetamide]	1 to 10	–	–
C[C@@H](O)CNC(=O)C(=O)N1CCN(C(=O)c2cc3ccccc3[nH]2)CC1 [Example 2, (R)-2-(4-(1H-indole-2-carbonyl)piperazin-1-yl)-N-(2-hydroxypropyl)-2-oxoacetamide]	1 to 10	5 to 10	> 100
O=C(NCCO)C(=O)N1CCN(C(=O)c2cc3ccccc3[nH]2)CC1 [Example 3, 2-(4-(1H-indole-2-carbonyl)piperazin-1-yl)-N-(2-hydroxyethyl)-2-oxoacetamide]	1 to 10	< 100	> 100
O=C(NCC1CCOC1)C(=O)N1CCN(C(=O)c2cc3ccccc3[nH]2)CC1 (stereo not shown) [Example 4, 2-(4-(1H-indole-2-carbonyl)piperazin-1-yl)-2-oxo-N-((tetrahydrofuran-3-yl)methyl)acetamide]	1 to 10	< 100	> 100
CCCCNC(=O)C(=O)N1CCN(C(=O)c2cc3cccc(C)c3[nH]2)CC1 [Example 24, N-butyl-2-(4-(7-methyl-1H-indole-2-carbonyl)piperazin-1-yl)-2-oxoacetamide]	< 1	–	> 100
O=C(NC1CCOCC1)C(=O)N1CCN(C(=O)c2cc3ccccc3[nH]2)CC1 [Example 40, 2-(4-(1H-indole-2-carbonyl)piperazin-1-yl)-2-oxo-N-(tetrahydro-2H-pyran-4-yl)acetamide]	–	5 to 10	–
COCC1(NC(=O)C(=O)N2CCN(C(=O)c3cc4ccccc4[nH]3)CC2)CCC1 [Example 41, 2-(4-(1H-indole-2-carbonyl)piperazin-1-yl)-N-(1-(methoxymethyl)cyclobutyl)-2-oxoacetamide]	–	< 5	–
CC(C)(C)NC(=O)C(=O)N1CCN(C(=O)c2cc3cc(F)c(F)cc3[nH]2)CC1 [Example 42, N-tert-butyl-2-[4-(5,6-difluoro-1H-indole-2-carbonyl)piperazin-1-yl]-2-oxoacetamide]	–	5 to 10	–
CC(C)(C)NC(=O)C(=O)N1CCN(C(=O)c2cc3c(F)cc(F)cc3[nH]2)CC1 [Example 43, N-(tert-butyl)-2-(4-(4,6-difluoro-1H-indole-2-carbonyl)piperazin-1-yl)-2-oxoacetamide]	–	< 5	–
Cc1cccc2[nH]c(C(=O)N3CCN(C(=O)C(=O)NC(C)(C)C)CC3)cc12 [Example 44, N-(tert-butyl)-2-(4-(4-methyl-1H-indole-2-carbonyl)piperazin-1-yl)-2-oxoacetamide]	–	< 5	–
CC(C)(C)NC(=O)C(=O)N1CCN(C(=O)c2cc3cc(F)c(Cl)cc3[nH]2)CC1 [Example 45, N-(tert-butyl)-2-(4-(6-chloro-5-fluoro-1H-indole-2-carbonyl)piperazin-1-yl)-2-oxoacetamide]	–	5 to 10	–
Cc1c(F)ccc2[nH]c(C(=O)N3CCN(C(=O)C(=O)NC(C)(C)C)CC3)cc12 [Example 46, N-(tert-butyl)-2-(4-(5-fluoro-4-methyl-1H-indole-2-carbonyl)piperazin-1-yl)-2-oxoacetamide]	–	5 to 10	–
C[C@@H]1CN(C(=O)C(=O)NC(C)(C)C)[C@@H](C)CN1C(=O)c1cc2ccccc2[nH]1 [Example 48, N-tert-butyl-2-[(2S,5R)-4-(1H-indole-2-carbonyl)-2,5-dimethylpiperazin-1-yl]-2-oxoacetamide]	–	< 5	–
C[C@H]1CN(C(=O)C(=O)NC(C)(C)C)CCN1C(=O)c1cc2ccccc2[nH]1 [Example 49, (S)-2-(4-(1H-indole-2-carbonyl)-3-methylpiperazin-1-yl)-N-(tert-butyl)-2-oxoacetamide]	–	< 100	–
C[C@@H]1CN(C(=O)C(=O)NC(C)(C)C)CCN1C(=O)c1cc2ccccc2[nH]1 [Example 50, (R)-2-(4-(1H-indole-2-carbonyl)-3-methylpiperazin-1-yl)-N-(tert-butyl)-2-oxoacetamide]	–	< 5	–
CC(C)(C)NC(=O)C(=O)N1CCCN(C(=O)c2cc3ccccc3[nH]2)CC1 [Example 51, 2-(4-(1H-indole-2-carbonyl)-1,4-diazepan-1-yl)-N-(tert-butyl)-2-oxoacetamide]	–	< 100	–
CC1(NC(=O)C(=O)N2CCN(C(=O)c3cc4ccccc4[nH]3)CC2)CCCCCC1 [Example 66, 2-[4-(1H-indole-2-carbonyl)piperazin-1-yl]-N-(1-methylcycloheptyl)-2-oxoacetamide]	–	5 to 10	–
CCC(C)(C)NC(=O)C(=O)N1CCN(C(=O)c2cc3ccccc3[nH]2)CC1 [Example 67, 2-[4-(1H-indole-2-carbonyl)piperazin-1-yl]-N-(2-methylbutan-2-yl)-2-oxoacetamide]	–	< 5	–
CC(C)(CCCO)NC(=O)C(=O)N1CCN(C(=O)c2cc3ccccc3[nH]2)CC1 [Example 68, N-(5-hydroxy-2-methylpentan-2-yl)-2-[4-(1H-indole-2-carbonyl)piperazin-1-yl]-2-oxoacetamide]	–	< 5	–
CC(C)(CC(F)(F)F)NC(=O)C(=O)N1CCN(C(=O)c2cc3ccccc3[nH]2)CC1 [Example 69, 2-[4-(1H-indole-2-carbonyl)piperazin-1-yl]-2-oxo-N-(4,4,4-trifluoro-2-methylbutan-2-yl)acetamide]	–	< 5	–
O=C(NC1CCCCCC1)C(=O)N1CCN(C(=O)c2cc3ccccc3[nH]2)CC1 [Example 70, N-cycloheptyl-2-[4-(1H-indole-2-carbonyl)piperazin-1-yl]-2-oxoacetamide]	–	5 to 10	–
